We go through 25 molecules from patent publication US10053417B2, “Neprilysin inhibitors” (THERAVANCE BIOPHARMA R&D IP, LLC, priority 2013, dated 2018).

Bounds are passed on as bounds.

The target of this experiment is T1, human NEP (Homo sapiens, UniProt P08473).
T1 construct: purchased R&D Systems, Minneapolis, Minn; 1182-ZN
T1 sequence (P08473 52-750 limits assumed): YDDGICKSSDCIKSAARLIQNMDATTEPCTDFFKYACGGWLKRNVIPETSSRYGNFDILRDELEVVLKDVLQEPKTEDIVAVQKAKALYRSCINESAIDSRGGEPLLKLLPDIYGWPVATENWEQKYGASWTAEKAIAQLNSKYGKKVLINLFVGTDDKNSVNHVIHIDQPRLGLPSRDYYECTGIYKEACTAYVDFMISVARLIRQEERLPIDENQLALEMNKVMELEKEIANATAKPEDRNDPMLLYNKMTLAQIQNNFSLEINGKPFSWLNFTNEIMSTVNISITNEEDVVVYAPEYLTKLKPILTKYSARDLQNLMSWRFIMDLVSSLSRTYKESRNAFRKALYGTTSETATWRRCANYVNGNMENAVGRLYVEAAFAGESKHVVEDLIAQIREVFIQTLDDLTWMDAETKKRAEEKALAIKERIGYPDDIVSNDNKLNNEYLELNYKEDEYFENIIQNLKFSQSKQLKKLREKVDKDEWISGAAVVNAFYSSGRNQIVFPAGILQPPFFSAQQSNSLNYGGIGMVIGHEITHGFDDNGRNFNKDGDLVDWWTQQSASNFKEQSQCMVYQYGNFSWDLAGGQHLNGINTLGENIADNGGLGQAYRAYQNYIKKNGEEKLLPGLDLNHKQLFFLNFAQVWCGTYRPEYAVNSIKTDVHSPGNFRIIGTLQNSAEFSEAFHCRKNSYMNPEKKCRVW
In words: In vitro enzyme inhibition assay, inhibitor potency at human NEP (Assay 1). It counts as biochemical. Particulars: recombinant human NEP; fluorogenic peptide substrate 10 μM; 37° C.; values given as ranges. The protocol: The inhibitory activities of compounds at human and rat neprilysin (EC 3.4.24.11; NEP) and human angiotensin converting enzyme (ACE) were determined using in vitro assays as described below.
Recombinant human NEP and recombinant human ACE were obtained commercially (R&D Systems, Minneapolis, Minn., catalog numbers 1182-ZN and 929-ZN, respectively). The fluorogenic peptide substrate Mca-D-Arg-Arg-Leu-Dap-(Dnp)-OH (Medeiros et al. (1997) Braz. J. Med. Biol. Res. 30:1157-62; Anaspec, San Jose, Calif.) and Abz-Phe-Arg-Lys(Dnp)-Pro-OH (Araujo et al. (2000) Biochemistry 39:8519-8525; Bachem, Torrance, Calif.) were used in the NEP and ACE assays respectively.
The assays were performed in 384-well white opaque plates at 37° C. using the fluorogenic peptide substrates at a concentration of 10 μM in Assay Buffer (NEP: 50 mM HEPES, pH 7.5, 100 mM NaCl, 0.01% polyethylene glycol sorbitan monolaurate (Tween-20), 10 μM ZnSO4; ACE: 50 mM HEPES, pH 7.5, 100 mM NaCl, 0.01% Tween-20, 1 μM ZnSO4).
Test compounds were assayed over the range of concentrations from […] to 20 μM. Test compounds were added to the enzymes and incubated for 30 minute at 37° C. prior to initiating the reaction by the addition of substrate. Reactions were terminated after 20 minutes of incubation at 37° C. by the addition of glacial acetic acid to a final concentration of 3.6% (v/v).
Plates were read on a fluorometer with excitation and emission wavelengths set to 320 nm and 405 nm, respectively. Inhibition constants were obtained by nonlinear regression of the data using the equation (GraphPad Software, Inc., San Diego, Calif.): ν=ν0/[1+(I/K′)] where ν is the reaction rate, ν0 is the uninhibited reaction rate, I is the inhibitor concentration and K′ is the apparent inhibition constant.
Compounds of the invention were tested in this assay and found to have pKi values at human NEP as follows.
As usually defined, the Ki is a measure of affinity in units of concentration, obtained from inhibition or displacement. For the molecule `CC1(O)CCN(C(=O)C(=O)N[C@H](Cc2ccc(-c3cccc(Cl)c3)cc2)C[C@@H](O)C(=O)O)CC1` [Example 4-22, (2R,4R)-5-(3′-Chlorobiphenyl-4-yl)-2-hydroxy-4-[2-(4-hydroxy-4-methyl-piperidin-1-yl)-2-oxo-acetylamino]pentanoic acid], the Ki is 1 to 10 nM.

On to `O=C(N[C@H](Cc1ccc(-c2cccc(Cl)c2)cc1)C[C@@H](O)C(=O)O)C(=O)N1CCC(c2ccncc2)CC1` [Example 4-23, (2R,4R)-5-(3′-Chlorobiphenyl-4-yl)-2-hydroxy-4-[2-oxo-2-(3,4,5,6-tetrahydro-2H-[4,4′]bipyridinyl-1-yl)-acetylamino]pentanoic acid], for which the Ki is 10 to 31.6 nM.

Consider `O=C(N[C@H](Cc1ccc(-c2cccc(Cl)c2)cc1)C[C@@H](O)C(=O)O)C(=O)N1CCC(CCO)CC1` [Example 4-24, (2R,4R)-5-(3′-Chlorobiphenyl-4-yl)-2-hydroxy-4-{2-[4-(2-hydroxyethyl)-piperidin-1-yl]-2-oxo-acetylamino}pentanoic acid], for which the Ki is 1 to 10 nM.

Take `O=C(N[C@H](Cc1ccc(-c2cccc(Cl)c2)cc1)C[C@@H](O)C(=O)O)C(=O)N1CCCC[C@@H]1CO` [Example 4-25, (2R,4R)-5-(3′-Chlorobiphenyl-4-yl)-2-hydroxy-4-[2-((R)-2-hydroxymethyl-piperidin-1-yl)-2-oxo-acetylamino]pentanoic acid]: the Ki is at most 1 nM.

For the molecule `O=C(N[C@H](Cc1ccc(-c2cccc(Cl)c2)cc1)C[C@@H](O)C(=O)O)C(=O)N1CCCC[C@H]1CO` [Example 4-26, (2R,4R)-5-(3′-Chlorobiphenyl-4-yl)-2-hydroxy-4-[2-((S)-2-hydroxymethyl-piperidin-1-yl)-2-oxo-acetylamino]pentanoic acid], the Ki was at most 1 nM.

For the molecule `O=C(N[C@H](Cc1ccc(-c2cccc(Cl)c2)cc1)C[C@@H](O)C(=O)O)C(=O)N1CCC(C(=O)O)CC1` [Example 4-27, 1-[(1R,3R)-3-Carboxy-1-(3′-chlorobiphenyl-4-ylmethyl)-3-hydroxypropyl-aminooxalyl]-piperidine-4-carboxylic acid], the Ki was 1 to 10 nM.

Consider `O=C(N[C@H](Cc1ccc(-c2cccc(Cl)c2)cc1)C[C@@H](O)C(=O)O)C(=O)N1CCCC(C(=O)O)C1` (stereo partly drawn) [Example 4-28, 1-[(1R,3R)-3-Carboxy-1-(3′-chlorobiphenyl-4-ylmethyl)-3-hydroxypropyl-aminooxalyl]-piperidine-3-carboxylic acid], for which the Ki was 1 to 10 nM.

In the case of `NC(=O)C1CCN(C(=O)C(=O)N[C@H](Cc2ccc(-c3cccc(Cl)c3)cc2)C[C@@H](O)C(=O)O)CC1` [Example 4-29, (2R,4R)-4-[2-(4-Carbamoyl-piperidin-1-yl)-2-oxo-acetylamino]-5-(3′-chlorobiphenyl-4-yl)-2-hydroxypentanoic acid], the Ki was 10 to 31.6 nM.

As to `N#CC1CCCN(C(=O)C(=O)N[C@H](Cc2ccc(-c3cccc(Cl)c3)cc2)C[C@@H](O)C(=O)O)C1` (stereo partly drawn) [Example 4-30, (2R,4R)-5-(3′-Chlorobiphenyl-4-yl)-4-[2-(3-cyanopiperidin-1-yl)-2-oxo-acetylamino]-2-hydroxypentanoic acid], the Ki is 10 to 31.6 nM.

In the case of `O=C(N[C@H](Cc1ccc(-c2cccc(Cl)c2)cc1)C[C@@H](O)C(=O)O)C(=O)N1CCC(F)CC1` [Example 4-31, (2R,4R)-5-(3′-Chlorobiphenyl-4-yl)-4-[2-(4-fluoropiperidin-1-yl)-2-oxo-acetylamino]-2-hydroxypentanoic acid], the Ki is 10 to 31.6 nM.

With `O=C(N[C@H](Cc1ccc(-c2cccc(Cl)c2)cc1)C[C@@H](O)C(=O)O)C(=O)N1CCCC(CCO)C1` (stereo partly drawn) [Example 4-32, (2R,4R)-5-(3′-Chlorobiphenyl-4-yl)-2-hydroxy-4-{2-[3-(2-hydroxyethyl)-piperidin-1-yl]-2-oxo-acetylamino}pentanoic acid], the Ki was 10 to 31.6 nM.

Consider `O=C(N[C@H](Cc1ccc(-c2cccc(Cl)c2)cc1)C[C@@H](O)C(=O)O)C(=O)N1CCC[C@H](CO)C1` [Example 4-33, (2R,4R)-5-(3′-Chlorobiphenyl-4-yl)-2-hydroxy-4-[2-((S)-3-hydroxymethyl-piperidin-1-yl)-2-oxo-acetylamino]pentanoic acid], for which the Ki was 1 to 10 nM.

Regarding `CN1CCN(C(=O)C(=O)N[C@H](Cc2ccc(-c3cccc(Cl)c3)cc2)C[C@@H](O)C(=O)O)CC1` [Example 4-34, (2R,4R)-5-(3′-Chlorobiphenyl-4-yl)-2-hydroxy-4-[2-(4-methyl-piperazin-1-yl)-2-oxo-acetylamino]pentanoic acid], the Ki is 10 to 31.6 nM.

In the case of `CCOC(=O)N1CCN(C(=O)C(=O)N[C@H](Cc2ccc(-c3cccc(Cl)c3)cc2)C[C@@H](O)C(=O)O)CC1` [Example 4-35, 4-[(1R,3R)-3-Carboxy-1-(3′-chlorobiphenyl-4-ylmethyl)-3-hydroxy-propylaminooxalyl]-piperazine-1-carboxylic acid ethyl ester], the inhibitory constant (Ki) was 10 to 31.6 nM.

`O=C(N[C@H](Cc1ccc(-c2cccc(Cl)c2)cc1)C[C@@H](O)C(=O)O)C(=O)N1CCN(C(=O)c2ccco2)CC1` [Example 4-36, (2R,4R)-5-(3′-Chlorobiphenyl-4-yl)-4-{2-[4-(furan-2-carbonyl)-piperazin-1-yl]-2-oxo-acetylamino}-2-hydroxypentanoic acid]: the Ki is 1 to 10 nM.

`N#Cc1ccccc1N1CCN(C(=O)C(=O)N[C@H](Cc2ccc(-c3cccc(Cl)c3)cc2)C[C@@H](O)C(=O)O)CC1` [Example 4-37, (2R,4R)-5-(3′-Chlorobiphenyl-4-yl)-4-{2-[4-(2-cyano-phenyl)-piperazin-1-yl]-2-oxo-acetylamino}-2-hydroxypentanoic acid]: the Ki is 10 to 31.6 nM.

For `CCOCCN1CCN(C(=O)C(=O)N[C@H](Cc2ccc(-c3cccc(Cl)c3)cc2)C[C@@H](O)C(=O)O)CC1` [Example 4-38, (2R,4R)-5-(3′-Chlorobiphenyl-4-yl)-4-{2-[4-(2-ethoxy-ethyl)-piperazin-1-yl]-2-oxo-acetylamino}-2-hydroxypentanoic acid], the Ki is 10 to 31.6 nM.

As for `CS(=O)(=O)N1CCN(C(=O)C(=O)N[C@H](Cc2ccc(-c3cccc(Cl)c3)cc2)C[C@@H](O)C(=O)O)CC1` [Example 4-39, (2R,4R)-5-(3′-Chlorobiphenyl-4-yl)-2-hydroxy-4-[2-(4-methanesulfonyl-piperazin-1-yl)-2-oxo-acetylamino]pentanoic acid], the Ki was 10 to 31.6 nM.

Take `CN(C)C(=O)N1CCN(C(=O)C(=O)N[C@H](Cc2ccc(-c3cccc(Cl)c3)cc2)C[C@@H](O)C(=O)O)CC1` [Example 4-40, (2R,4R)-5-(3′-Chlorobiphenyl-4-yl)-4-[2-(4-dimethylcarbamoyl-piperazin-1-yl)-2-oxo-acetylamino]-2-hydroxypentanoic acid]: the Ki is 10 to 31.6 nM.

For the molecule `COC(=O)N1CCN(C(=O)C(=O)N[C@H](Cc2ccc(-c3cccc(Cl)c3)cc2)C[C@@H](O)C(=O)O)CC1` [Example 4-41, 4-[(1R,3R)-3-Carboxy-1-(3′-chlorobiphenyl-4-ylmethyl)-3-hydroxy-propylaminooxalyl]-piperazine-1-carboxylic acid methyl ester], the Ki was 1 to 10 nM.

As to `C[C@@H]1COC[C@H](C)N1C(=O)C(=O)N[C@H](Cc1ccc(-c2cccc(Cl)c2)cc1)C[C@@H](O)C(=O)O` [Example 4-42, (2R,4R)-5-(3′-Chlorobiphenyl-4-yl)-4-[2-((3R,5S)-3,5-dimethylmorpholin-4-yl)-2-oxo-acetylamino]-2-hydroxypentanoic acid], the Ki is 10 to 31.6 nM.

In the case of `O=C(N[C@H](Cc1ccc(-c2cccc(Cl)c2)cc1)C[C@@H](O)C(=O)O)C(=O)N1CCOC(CO)C1` (stereo partly drawn) [Example 4-43, (2R,4R)-5-(3′-Chlorobiphenyl-4-yl)-2-hydroxy-4-[2-(2-hydroxymethyl-morpholin-4-yl)-2-oxo-acetylamino]pentanoic acid], the Ki was 1 to 10 nM.

Turning to `O=C(N[C@H](Cc1ccc(-c2cccc(Cl)c2)cc1)C[C@@H](O)C(=O)O)C(=O)N1CCOCC1` [Example 4-44, (2R,4R)-5-(3′-Chlorobiphenyl-4-yl)-2-hydroxy-4-(2-morpholin-4-yl-2-oxo-acetylamino)pentanoic acid], the Ki was 1 to 10 nM.

As to `C[C@@H]1CN(C(=O)C(=O)N[C@H](Cc2ccc(-c3cccc(Cl)c3)cc2)C[C@@H](O)C(=O)O)C[C@H](C)O1` [Example 4-45, (2R,4R)-5-(3′-Chlorobiphenyl-4-yl)-4-[2-((2R,6S)-2,6-dimethylmorpholin-4-yl)-2-oxo-acetylamino]-2-hydroxypentanoic acid], the Ki is 1 to 10 nM.

Take `C[C@@H]1CO[C@@H](C)CN1C(=O)C(=O)N[C@H](Cc1ccc(-c2cccc(Cl)c2)cc1)C[C@@H](O)C(=O)O` [Example 4-46, (2R,4R)-5-(3′-Chlorobiphenyl-4-yl)-4-[2-((2S,5R)-2,5-dimethylmorpholin-4-yl)-2-oxo-acetylamino]-2-hydroxypentanoic acid]: the Ki is 1 to 10 nM.
